Laboratory results taken from paper PMC4859520, “Binding Properties of General Odorant Binding Proteins from the Oriental Fruit Moth, Grapholita molesta (Busck) (Lepidoptera: Tortricidae)” (PLoS ONE, 2016).
Like-named read-outs stand apart in the source and are kept apart here.

Legend:
[1] = biological target: GmolGOBP2 (Grapholita molesta, UniProt H9XTU6); experiment: Fluorescence competitive binding assay with probe 1-NPN, rGmolGOBP2 wild-type
Experimental: (§1) Fluorescence binding assays were performed on a Hitachi (Tokyo, Japan) F-4500 fluorescence spectrophotometer with a 1 cm light path fluorimeter quartz cuvette. Both of the slit widths for excitation and emission were 10 nm. 1-N-phenyl-naphthylamine (1-NPN) was dissolved in HPLC purity grade methanol to yield a 1 mM stock solution. […] The probes were excited at 337 nm and emission spectra were recorded between 370 and 550 nm. […] Binding data were collected in three independent measurements.
(§2) Dissociation constants of the complex GmolGOBPs/1-NPN (K1-NPN) were calculated by a nonlinear regression binding curve, using Prism 5.0 (GraphPad Software Inc.).

[2] = biological target: GmolGOBP2 T9A (Grapholita molesta, UniProt H9XTU6, T29A); experiment: Fluorescence competitive binding assay, GmolGOBP2 mutant T9A; conditions: for affinity of T9A mutant versus wild-type (in words): T9A versus wild-type rGmolGOBP2
GmolGOBP2 T9A, sequence (H9XTU6 entry or part of it T29A): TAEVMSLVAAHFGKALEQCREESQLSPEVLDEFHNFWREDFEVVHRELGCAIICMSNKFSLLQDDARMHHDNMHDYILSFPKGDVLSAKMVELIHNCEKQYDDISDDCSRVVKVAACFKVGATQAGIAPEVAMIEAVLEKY
Experimental: (§3) Fluorescence binding assays were performed on a Hitachi (Tokyo, Japan) F-4500 fluorescence spectrophotometer with a 1 cm light path fluorimeter quartz cuvette. Both of the slit widths for excitation and emission were 10 nm. 1-N-phenyl-naphthylamine (1-NPN) was dissolved in HPLC purity grade methanol to yield a 1 mM stock solution. A 2 μM solution of the protein in 20 mM Tris-HCl, pH 7.4, was titrated with aliquots of 1 mM 1-NPN to final concentrations of 1, 2, 4, 6, 8, 10, 12, 14, 16, 18, and 22 μM. The probes were excited at 337 nm and emission spectra were recorded between 370 and 550 nm. All ligands (S1 File) used in competitive binding assays were also dissolved in HPLC purity grade methanol. The final concentrations of sex pheromones were between 1 and 22 μM for each rGmolGOBP protein, whereas the concentrations of 30 synthetic plant volatiles to rGmolGOBP1 and 2 were up to 64 and 100 μM, respectively. Binding data were collected in three independent measurements.
(§4) Dissociation constants of the complex GmolGOBPs/1-NPN (K1-NPN) were calculated by a nonlinear regression binding curve, using Prism 5.0 (GraphPad Software Inc.). The inhibition constants (Ki) of the competitors were computed from the corresponding IC50 values using the equation: Ki = [IC50]/(1+[1−NPN]/K1−NPN), where [1−NPN] is the free concentration of 1−NPN and K1-NPN is the dissociation constant of the complex protein/1-NPN.
(§5) Gene-specific primers were designed in accordance with the recommended protocols of the TaKaRa MutanBEST Kit (TaKaRa, Shiga, Japan). The GmolGOBP2 coding sequence was mutated to create the three mutants GmolGOBP2 T9A (threonine to alanine at position 9), GmolGOBP2 V111A (valine to alanine at position 111), and GmolGOBP2 V114A (valine to alanine at position 114). Mutations were obtained using the TaKaRa MutanBEST Kit with Pyrobest DNA polymerase with the pMD19-T/GmolGOBP2 plasmid DNA as template. All plasmids containing mutations were verified by DNA sequencing. Mutated protein expression and enrichment were performed as described above for rGmolGOBP1 and 2. After determining concentrations, purified mutants were applied to verify the binding affinities with dodecanol and its analogs in fluorescence ligand-binding assays.

[3] = biological target: GmolGOBP2 V111A (Grapholita molesta, UniProt H9XTU6, V131A); experiment: Fluorescence competitive binding assay, GmolGOBP2 mutant V111A; conditions: for affinity of V111A mutant versus wild-type (in words): V111A versus wild-type rGmolGOBP2
GmolGOBP2 V111A, sequence (H9XTU6 entry or part of it V131A): as the sequence (H9XTU6 entry or part of it T29A) above, with A9T, V111A counted along it
Experimental: as §3, §4, §5

[4] = biological target: GmolGOBP2 V114A (Grapholita molesta, UniProt H9XTU6, V134A); experiment: Fluorescence competitive binding assay, GmolGOBP2 mutant V114A; conditions: for affinity of V114A mutant versus wild-type (in words): V114A versus wild-type rGmolGOBP2
GmolGOBP2 V114A, sequence (H9XTU6 entry or part of it V134A): as the sequence (H9XTU6 entry or part of it T29A) above, with A9T, V114A counted along it
Experimental: as §3, §4, §5

[5] = biological target: T1, rGmolGOBP1 (Grapholita molesta, UniProt H9XTU5); experiment: 1-NPN fluorescence binding titration of rGmolGOBP1; conditions: 2 μM protein, 20 mM Tris-HCl pH 7.4; read-out: dissociation constant of 1-NPN
T1 sequence (H9XTU5 21-164): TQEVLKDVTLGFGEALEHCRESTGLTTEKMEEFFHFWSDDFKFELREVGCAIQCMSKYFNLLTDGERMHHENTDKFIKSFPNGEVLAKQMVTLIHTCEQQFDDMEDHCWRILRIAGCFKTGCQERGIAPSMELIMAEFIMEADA
Experimental: as §3
(§6) Dissociation constants of the complex GmolGOBPs/1-NPN (K1-NPN) were calculated by a nonlinear regression binding curve, using Prism 5.0 (GraphPad Software Inc.). […]

[6] = biological target: rGmolGOBP2 (Grapholita molesta, UniProt H9XTU6); experiment: 1-NPN fluorescence binding titration of rGmolGOBP2; conditions: 2 μM protein, 20 mM Tris-HCl pH 7.4; read-out: dissociation constant of 1-NPN
rGmolGOBP2, sequence (H9XTU6 entry or part of it): as the sequence (H9XTU6 entry or part of it T29A) above, with A9T counted along it
Experimental: as §3, §6

[7] = biological target: GmolGOBP1 (Grapholita molesta, UniProt H9XTU5); experiment: Fluorescence competitive binding assay with probe 1-NPN, rGmolGOBP1
Experimental: as §1, §2

[8] = biological target: rGmolPBP1; set-up: method as in earlier work; conditions: cited from earlier work
[9] = biological target: rGmolOBP8; set-up: method as in PMID 26609640; conditions: cited from earlier work
[10] = biological target: rGmolOBP11; set-up: method as in PMID 26609640; conditions: cited from earlier work
[11] = protein and 1-NPN 2 μM, pH 7.4, calculated from IC50, read-out: GmolGOBP1 Ki
[12] = protein and 1-NPN 2 μM, pH 7.4, displacing half of initial fluorescence, read-out: GmolGOBP1 IC50
[13] = protein and 1-NPN 2 μM, pH 7.4, calculated from IC50, read-out: GmolGOBP2 Ki
[14] = protein and 1-NPN 2 μM, pH 7.4, displacing half of initial fluorescence, read-out: GmolGOBP2 IC50

GmolGOBP2, sequence (H9XTU6 entry or part of it): as the sequence (H9XTU6 entry or part of it T29A) above, with A9T counted along it

CCCCCCCCCCCCCCCCO [hexadecanol]
Ki ([1]; rGmolGOBP2 wild-type, protein and 1-NPN 2 μM, ligand 0 to 14 μM, read-out: Ki Wild-Type): 1.35 ± 0.45 µM
Ki [2]: 22.4 ± 3.03 µM
affinity of T9A mutant versus wild-type (in words) [2]: drastical decline in affinity
Ki [3]: 1360 ± 130 nM
affinity of V111A mutant versus wild-type (in words) [3]: no differences
Ki [4]: 1990 ± 740 nM
affinity of V114A mutant versus wild-type (in words) [4]: no differences

c1ccc(Nc2cccc3ccccc23)cc1 [1-NPN, 1-N-phenyl-naphthylamine]
Kd [5]: 11.4 µM
Kd [6]: 4.73 µM

CCC/C=C/CCCCCCCOC(C)=O [E8-12:AC, (E)-8-dodecenyl acetate]
Ki [7, 11]: 8.85 µM
IC50 [7, 12]: 10.5 ± 0.87 µM
Ki [8]: 1090 nM

CCCCCCOC(C)=O [Hexyl acetate]
Ki [7, 11]: 27.5 µM
IC50 [7, 12]: 29.9 ± 4.11 µM
Ki [1, 13]: 81.6 µM
IC50 [1, 14]: 98.8 ± 3.63 µM

CCCCCCO [1-Hexanol]
Ki [7, 11]: 19.7 µM
IC50 [7, 12]: 21.4 ± 1.8 µM

CCCCCCCCCCCCCCC [Pentadecane]
Ki [7, 11]: 11.4 µM
IC50 [7, 12]: 12.4 ± 1.87 µM

CCCCCCC(=O)OCC [Ethyl heptanoate]
Ki [7, 11]: 34.4 µM
IC50 [7, 12]: 37.4 ± 2.35 µM
Ki [1, 13]: 73.2 µM
IC50 [1, 14]: 88.7 ± 3.01 µM

CC1=CCC2CC1C2(C)C (stereo not drawn) [α-Pinene]
IC50 [7]: 16.1 ± 1.22 µM
Ki [7]: 14.8 µM
IC50 [1]: 51.7 ± 7.11 µM
Ki [1]: 42.6 µM

CCCC(=O)OCC [Ethyl butyrate]
Ki [7, 11]: 33.2 µM
IC50 [7, 12]: 36.1 ± 2.88 µM

CCCCCCCCCC [Decane]
Ki [7, 11]: 5.19 µM
IC50 [7, 12]: 5.64 ± 0.69 µM

CCCCCC(=O)OCCCC [Butyl hexanoate]
Ki [7, 11]: 17.7 µM
IC50 [7, 12]: 19.2 ± 1.27 µM
Ki [1, 13]: 43.1 µM
IC50 [1, 14]: 52.2 ± 2.49 µM

CC/C=C\CC1C(=O)CCC1CC(=O)OC (stereo not drawn) [Methyl jasmonate]
Ki [7, 11]: 35.8 µM
IC50 [7, 12]: 38.9 ± 1.56 µM
Ki [1, 13]: 60.8 µM
IC50 [1, 14]: 73.7 ± 5 µM

CCCCCCC=O [Heptanal]
Ki [7, 11]: 34.2 µM
IC50 [7, 12]: 37.1 ± 4.5 µM

CCC/C=C/C=O [(E)-2-Hexenal]
IC50 [7]: 23 ± 1.85 µM
Ki [7]: 21.2 µM

CCCCCC=O [Hexanal]
IC50 [7]: 33.6 ± 2 µM
Ki [7]: 30.9 µM

CCCCCCCCCCCCCCO [tetradecanol]
Ki [1]: 0.36 ± 0.05 µM
affinity of T9A mutant versus wild-type (in words) [2]: drastical decline in affinity
Ki ([2]; mutant T9A, protein and 1-NPN 2 μM, ligand 0 to 14 μM, read-out: Ki T9A): 5.75 ± 0.86 µM
affinity of V111A mutant versus wild-type (in words) [3]: no differences
Ki ([3]; mutant V111A, protein and 1-NPN 2 μM, ligand 0 to 14 μM, read-out: Ki V111A): 300 ± 160 nM
affinity of V114A mutant versus wild-type (in words) [4]: no differences
Ki ([4]; mutant V114A, protein and 1-NPN 2 μM, ligand 0 to 14 μM, read-out: Ki V114A): 370 ± 140 nM

CCC/C=C\CCCCCCCO [Z8-12:OH, (Z)-8-dodecenyl alcohol]
Ki [7, 11]: 3.14 µM
IC50 [7, 12]: 3.85 ± 0.41 µM
Ki [1, 13]: 12.8 µM
IC50 [1, 14]: 15.5 ± 0.52 µM
Ki [9]: 5.59 µM
Ki [10]: 3.05 µM

CC(=O)OCCC(C)C [Isoamyl acetate]
Ki [7, 11]: 26.6 µM
IC50 [7, 12]: 29 ± 2.18 µM

N#Cc1ccccc1 [Benzonitrile]
IC50 [7]: 40.4 ± 1.95 µM
Ki [7]: 37.1 µM
